Test results from publication PMC7316994, “In Vitro Pharmacological Profile of a New Small Molecule Bradykinin B2 Receptor Antagonist” (Frontiers in Pharmacology, 2020).
Like-named read-outs stand apart in the source and are kept apart here. Peptide text beside a SMILES is read from it.

Assays:
[1] = microsomal stability; details: for microsomal CLint at 1 µM: male, Wistar, rat, liver microsomes, pH 7.4
[2] = Caco-2 permeation assay (bidirectional); details: human
[3] = biological target: T1, B2 receptor (Homo sapiens, UniProt P30411); experiment: [^3H]BK competition binding assay, CHO cell membranes; parameters: host or cells: CHO cells; details: for IC50 / Ki: competition with 0.3 nM [^3H]BK; for fold lower affinity compared to Compound 3 and icatibant: radioligand binding
T1 sequence (P30411 1-391): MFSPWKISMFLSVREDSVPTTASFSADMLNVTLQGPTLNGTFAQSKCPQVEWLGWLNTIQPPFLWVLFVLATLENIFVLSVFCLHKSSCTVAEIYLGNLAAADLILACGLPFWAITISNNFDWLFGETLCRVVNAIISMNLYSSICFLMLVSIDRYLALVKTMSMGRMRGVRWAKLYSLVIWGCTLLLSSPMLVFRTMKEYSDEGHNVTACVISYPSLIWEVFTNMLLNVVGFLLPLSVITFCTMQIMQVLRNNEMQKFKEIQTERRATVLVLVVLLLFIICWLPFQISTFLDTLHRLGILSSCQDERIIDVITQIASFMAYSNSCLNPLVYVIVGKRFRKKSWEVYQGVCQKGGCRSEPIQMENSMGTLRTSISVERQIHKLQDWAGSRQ

[4] = biological target: T2, human myc-B2 receptor (Homo sapiens, UniProt P30411); experiment: c-Fos immunoblot, HEK 293a cells stably expressing myc-B2 receptor; format: cell-based; details: BK 10 nM
T2 construct: expressed in transfected cells
T2 sequence (P30411 1-391): T1 sequence (P30411 1-391)
Description: Supplementary Methods: Immunoblots for c-Fos signaling
The construction of myc-tagged B2 receptor expression vector containing the human receptor sequence has been recently reported, as well as the derivation of HEK293a cell lines that stably express the construction (Charest-Morin et al., 2015). Immunoblotting experiments, conducted as described (Koumbadinga et al., 2010), were used to study the effect of selected antagonists on BK-induced signaling. Briefly, HEK 293a cells stably expressing the human myc-B2 receptor were stimulated with BK agonists for 60 min at 37°C, with or without a pretreatment with the antagonist (applied 15 min before BK). Total cell extracts were immunoblotted to detect c-Fos expression using the K-25 rabbit polyclonal antibodies (Santa Cruz Biotechnology, Dallas, TX; dilution 1:50,000). In these experiments, β-actin was used as a loading control and was detected using the monoclonal anti-β-actin antibody, clone AC-15 (Sigma-Aldrich; dilution 1:50,000).

[5] = biological target: T1, B2 receptor; experiment: Ca^2+ mobilization assay, transfected CHO cells; format: cell-based; parameters: host or cells: CHO cells; details: for IC50 / Kb: inhibition of response to 0.03 nM BK
[6] = biological target: T3, endogenous human B2 receptor (Homo sapiens, UniProt P30411); experiment: human isolated umbilical vein contractility assay, BK-induced contraction; details: for type of antagonism of BK: BK concentration-effect curves, Emax; for pA2 / Kb: Schild plot; for pA2 / Kb / Schild plot slope: Pharm/PCS, ± S.E.M. where given; for Kb: read-out: pA2 (converted); for Schild plot slope: Schild regression; for Maximal BK-induced response in absolute force units ± S.E.M.: vehicle: Icatibant 1.90, Compound 1 […]; for pA2 value converted into nM: potency from pA2
T3 construct: BK-induced contraction at endogenous human B2 receptor in the umbilical vein model; from tissue; host or cells: human umbilical vein rings (donor cords after elective caesarean section)
T3 sequence (P30411 1-391): T1 sequence (P30411 1-391)

[7] = biological target: T4, myc-tagged human B2 receptor (Homo sapiens, UniProt P30411); experiment: antibody internalization assay, HEK 293a cells; format: cell-based; details: BK 100 nM; antagonist 1 nM to 1 μM, 15 min before BK
T4 construct: expressed in transfected cells
Protocol: B2 receptor-mediated transport of immune complexes constructed at the cell surface was previously reported ([Bawolak et al., 2011]). Intact HEK 293a cells stably expressing the N-terminally myc-tagged B2 receptor construction (human sequence, [Charest-Morin et al., 2015]) were treated with the monoclonal anti-myc antibody (clone 4A6) conjugated with AlexaFluor-488 (Millipore, dilution 1:500) added to the culture medium. Cells were further incubated at 37°C. Without rinsing, a selected antagonist or their DMSO vehicle was added 5 min later, and BK (100 nM) or its saline vehicle 15 min later. After an additional 30 min incubation period at 37°C, cells were rinsed 3 times with Hank's balanced salt solution (Multicell Wisent, St. Bruno, Canada) and photographed in transmission and epifluorescence using an Olympus BX51 microscope coupled to a CoolSnap HQ digital camera (filters for AlexaFluor 488: excitation 460–500 nm, emission 510–560 nm).

[8] = biological target: T5, 5-HT2A receptor (Homo sapiens, UniProt P28223); experiment: umbilical vein, serotonin-induced contraction; details: Compound 2 10 μM; Compound 3 1 μM
T5 construct: other endogenously expressed receptors in the human umbilical vein; from tissue; host or cells: human umbilical vein rings
Description: (§1) The local ethics committee (CHU de Québec-Université Laval) had approved the project (File no. 2017-3720). Umbilical cords were obtained following elective caesarean sections; all problematic deliveries are excluded. Informed consent was obtained from the mothers. The cords were transported from the maternity ward to the laboratory in sterile Hank's balanced salt solution containing penicillin and streptomycin. Segments of umbilical veins were dissected carefully from the cords and a metal rod was inserted in the lumen. Excess connective tissue was excised and rings (2–3 mm wide) were cut. Rings of umbilical veins were suspended in 5-mL organ chambers containing oxygenated (95% O2, 5% CO2) and warmed (37°C) Krebs' solution between a metal hook and a thread loop. This solution had the following composition: NaCl 117.5 mM, KCl 4.7 mM, KH2PO4 1.2 mM, MgSO4 1.18 mM, CaCI2 2.5 mM, NaHCO3 25.0 mM, and D-glucose 5.5 mM. A baseline of one gram-weight was applied to these preparations. Changes of tension were recorded by using isometric transducers (model 52-9545, Harvard Bioscience, South Natick MA). Eight tissue baths are operated in parallel.
(§2) For this purpose, contractile responses to serotonin, acting on the 5-HT2A receptor, and U-46619, acting at the prostanoid TP receptor, were measured ([Rogines-Velo et al., 2002]; [Daray et al., 2003]).

[9] = biological target: T6, prostanoid TP receptor (Homo sapiens, UniProt P21731); experiment: umbilical vein, U-46619-induced contraction; details: Compound 2 10 μM; Compound 3 1 μM
T6 construct: endogenous human prostanoid TP receptors in the umbilical vein model; from tissue; host or cells: human umbilical vein rings
Description: as §1, §2

[10] = biological target: T7, cynomolgus monkey B2 receptor (Macaca fascicularis, UniProt A0A7N9CWN6); experiment: cell-based
T7 sequence (A0A7N9CWN6 1-391): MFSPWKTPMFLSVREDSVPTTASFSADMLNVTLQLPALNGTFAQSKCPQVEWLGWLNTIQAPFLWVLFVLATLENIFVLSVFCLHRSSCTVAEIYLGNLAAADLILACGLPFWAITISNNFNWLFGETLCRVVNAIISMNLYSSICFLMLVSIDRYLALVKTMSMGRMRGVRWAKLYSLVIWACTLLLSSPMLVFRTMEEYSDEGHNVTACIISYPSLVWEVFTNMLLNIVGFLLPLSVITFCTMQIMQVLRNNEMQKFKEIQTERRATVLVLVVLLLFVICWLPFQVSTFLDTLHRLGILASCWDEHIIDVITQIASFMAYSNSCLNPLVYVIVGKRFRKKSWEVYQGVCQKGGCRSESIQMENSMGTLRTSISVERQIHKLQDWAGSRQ

[11] = biological target: T7, cynomolgus monkey B2 receptor; details: mean ± S.D.
[12] = arithmetic mean, read-out: IC50 (nM) Mean
[13] = arithmetic mean, read-out: Ki (nM) Mean
[14] = geometric mean, read-out: IC50 (nM) Geometric mean
[15] = geometric mean, read-out: Ki (nM) Geometric mean
[16] = arithmetic mean, read-out: Kb (nM) Mean
[17] = geometric mean, read-out: Kb (nM) Geometric mean
[18] = antagonist 10 nM, Compound 2 2.25, Compound 3 1.52
[19] = antagonist 100 nM, Compound 2 2.25, Compound 3 1.52
[20] = antagonist 1 μM, Compound 2 2.25, Compound 3 1.52
[21] = antagonist 10 μM, Compound 2 2.25

T6 sequence (P21731 whole entry): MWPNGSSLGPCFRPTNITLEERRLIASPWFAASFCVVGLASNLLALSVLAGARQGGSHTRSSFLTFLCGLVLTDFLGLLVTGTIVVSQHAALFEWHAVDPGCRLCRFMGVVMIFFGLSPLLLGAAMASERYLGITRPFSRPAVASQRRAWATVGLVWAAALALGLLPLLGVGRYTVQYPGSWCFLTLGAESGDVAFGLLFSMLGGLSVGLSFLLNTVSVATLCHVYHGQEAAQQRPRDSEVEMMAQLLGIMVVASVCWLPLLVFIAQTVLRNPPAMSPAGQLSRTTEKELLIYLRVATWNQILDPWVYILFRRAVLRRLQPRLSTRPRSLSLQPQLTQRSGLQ
T5 sequence (P28223 whole entry): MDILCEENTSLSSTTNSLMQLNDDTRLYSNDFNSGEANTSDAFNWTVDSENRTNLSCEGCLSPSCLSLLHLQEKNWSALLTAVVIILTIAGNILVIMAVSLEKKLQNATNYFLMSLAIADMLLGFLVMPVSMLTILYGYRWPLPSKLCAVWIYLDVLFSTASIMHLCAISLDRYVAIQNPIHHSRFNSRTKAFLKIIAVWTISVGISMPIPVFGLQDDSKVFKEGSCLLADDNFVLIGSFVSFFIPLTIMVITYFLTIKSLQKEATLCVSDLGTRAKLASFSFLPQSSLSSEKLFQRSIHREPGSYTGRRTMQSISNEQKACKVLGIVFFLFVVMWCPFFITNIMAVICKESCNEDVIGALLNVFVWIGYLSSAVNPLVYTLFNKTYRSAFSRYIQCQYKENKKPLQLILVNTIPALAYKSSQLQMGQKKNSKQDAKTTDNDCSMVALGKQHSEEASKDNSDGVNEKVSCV

SMILES | microsomal CLint at 1 µM [1] [µL/min/mg] | Papp A→B at 60 min, 10 µM [2] [×10⁻⁶ cm/s] | Papp B→A at 60 min, 10 µM [2] [×10⁻⁶ cm/s] | efflux ratio at 60 min, 10 µM [2] | IC50 [3, 12] [nM] | Ki [3, 13] [nM] | IC50 [3, 14] [nM] | Ki [3, 15] [nM] | fold lower affinity compared to Compound 3 and icatibant [3] | IC50 [5, 12] [nM] | Kb [5, 16] [nM] | IC50 [5, 14] [nM] | Kb [5, 17] [nM] | type of antagonism of BK [6] | pA2 [6] | Kb [6] [nM] | Schild plot slope [6] | Maximal BK-induced response in absolute force units ± S.E.M. [6, 18] [grams-weight] | Maximal BK-induced response in absolute force units ± S.E.M. [6, 19] [grams-weight] | Maximal BK-induced response in absolute force units ± S.E.M. [6, 20] [grams-weight] | other results
Cc1cc(-c2ncnn2C)c2cccc(OCc3c(Cl)cncc3C(C)NC(=O)COC(F)F)c2n1 (racemic) [Compound 2, rac-N-(1-(5-chloro-4-((2-methyl-4-(1-methyl-1H-1,2,4-triazol-5-yl)quinolin-8-yloxy)methyl)pyridin-3-yl)ethyl)-2-(difluoromethoxy)acetamide] | 497 | 3.9 | 29.9 | 7.7 | 7.6 | 3.9 | 7.6 | 3.9 | about 7 fold | 9.57 | 1.08 | 8.3 | 0.95 | competitive | 9.02 ± 0.31 | 0.955 | −0.65 | 2.07 ± 0.30 | 2.26 ± 0.42 | 2.00 ± 0.32 | fold lower intrinsic clearance compared with Compound 3 (so in the source) ([1]; rat microsomal stability assay): 18 fold; antagonist concentration that significantly reduced the c-Fos response to BK ([4]; 60 min): 100 nM; effect on BK-induced c-Fos accumulation ([4]; co-treatment between 10 nM and 1 μM): inhibited this response in a concentration-dependent manner; fold lower potency compared with Compound 3 ([5]; B2 receptor): 4.0 fold; Maximal BK-induced response in absolute force units ± S.E.M. [6, 21]: 1.82 ± 0.18 grams-weight; pA2 value converted into nM [6]: 0.95 nM; concentration with clear efficacy in inhibiting BK-induced endocytosis [7]: ≥ 100 nM; effect on serotonin-induced contraction [8]: failed to modify; effect on U-46619-induced contraction [9]: failed to modify
NC(N)=NCCC[C@H](NC(=O)[C@H](Cc1ccccc1)NC(=O)[C@@H]1CCCN1C(=O)[C@H](CO)NC(=O)[C@H](Cc1ccccc1)NC(=O)CNC(=O)[C@@H]1CCCN1C(=O)[C@@H]1CCCN1C(=O)[C@@H](N)CCCN=C(N)N)C(=O)O [BK] (H-RPPGFSPFR-OH) | – | – | – | – | – | – | – | – | – | – | – | – | – | – | – | – | – | – | – | – | EC50 [10]: 0.155 ± 0.043 nM
N=C(N)NCCC[C@H](NC(=O)[C@H](Cc1ccccc1)NC(=O)[C@@H]1CCCN1C(=O)[C@H](CO)NC(=O)[C@H](Cc1ccccc1)NC(=O)CNC(=O)[C@@H]1CCCN1C(=O)[C@@H]1CCCN1C(=O)[C@@H](N)CCCNC(=N)N)C(=O)O [BK] (H-RPPGFSPFR-OH) | – | – | – | – | – | – | – | – | – | – | – | – | – | – | – | – | – | – | – | – | average agonist EC80, Ca^2+ mobilization [11]: 0.539 ± 0.16 nM
Cc1cc(-c2ncnn2C)c2cccc(OCc3c(Cl)cncc3CNC(=O)C3CCCCC3)c2n1 [Compound 1, N-((5-chloro-4-((2-methyl-4-(1-methyl-1H-1,2,4-triazol-5-yl)quinolin-8-yloxy)methyl)pyridin-3-yl)methyl)cyclohexanecarboxamide] | 960 | 5.5 | 20.9 | 5.5 | 7.4 | 3.8 | 7.4 | 3.8 | about 7 fold | 11.3 | 1.3 | 11 | 1.24 | competitive | 8.58 ± 0.26 | 2.63 | −0.62 | 1.48 ± 0.24 | 2.08 ± 0.28 | 1.46 ± 0.20 | Maximal BK-induced response in absolute force units ± S.E.M. [6, 21]: 1.67 ± 0.28 grams-weight; pA2 value converted into nM [6]: 2.63 nM
